Laboratory results from patent US20180318343A1, “THERAPEUTIC AGENT FOR SKIN WOUND OR ROUGH SKIN” (JFE MINERAL COMPANY, LTD., priority 2015, published 2018).

Experiments:
[1] = Dissolution test by stirring method in saline; settings: per BET surface area, mass ratio 1:50, stirring 500 rpm, 37° C., 3 hours
Procedure: The amount of dissolved Zn^2+ ions is measured in the present description, as follows: The surface areas of samples, which are produced with varying pH values at production by the same process as that for Preparation Example 2 of Examples to be described later, are measured beforehand by the BET method (BET specific surface area analyzer: High Precision, Multi-Analyte Gas Absorption Analyzer, manufactured by Quantachrome Instruments Japan G.K.). For each sample, the Zn^2+ ion concentration after stirring in saline is measured with an ICP emission spectrometer (ICPE-9000, manufactured by Shimadzu Corporation) to thereby obtain the amount of dissolved Zn^2+ ions, and then the amount of dissolved Zn^2+ ions is divided by the previously measured surface area. The mass ratio between each sample and the saline is set to 1:50, and the amount of Zn^2+ ions dissolved in the saline is measured after 3-hour stirring at 500 rpm at 37° C. by means of a rotor. […]
A dissolution test by a stirring method was conducted on 0.6 g each of dry powders obtained in Preparation Example 2 using 30 g of saline, and the amount of dissolved Zn^2+ ions and the pH were measured. […] Then the pH and the Zn^2+ ion concentration after the dissolution test were measured. […]

skin = settings: in vivo; cited from earlier work
fibroblast = settings: cited from earlier work

Structure (SMILES)	Amount of dissolved Zn^2+ ions after dissolution test [1]	zinc ion level leading to increased inflammatory cell infiltration in skin and remarkably delayed reepithelization (skin)	zinc ion concentration that does not exhibit toxicity to a fibroblast (fibroblast)
[OH-].[OH-].[Zn+2] [zinc hydroxide]	less than 0.1 μg/m^2	–	–
[Zn+2] [zinc ions]	–	not less than 15 mmol/L	not more than 500 μmol/L
[O]=[Zn] [zinc oxide]	sufficient	–	–
